Literature values as cited in patent US20120015026A1, “PHARMACEUTICAL COMPOSITION CONTAINING A DRUG AND SIRNA” (priority 2009, published 2012).

Key:
[1] = organic solvents such as ethanol, ethylacetate, dichloromethane

C/C(=C\c1csc(C)n1)[C@@H]1C[C@@H]2O[C@]2(C)CCC[C@H](C)[C@H](O)[C@@H](C)C(=O)C(C)(C)[C@@H](O)CC(=O)O1 [EPO906, epothilone B]
solubility in organic solvents [1]: highly soluble | solubility in water: < 0.1 µg/mL
